{"source": "patent US11300567B2", "about": "“Methods and compositions for protein purification and enzyme reaction” (THE REGENTS OF THE UNIVERSITY OF CALIFORNIA, priority 2015, dated 2022)", "format_in_all_cases": "biochemical", "key": {"[1]": {"assay": "Immobilized alkaline phosphatase reactor: continuous flow stability", "details": "amine-glutaraldehyde cross linker, 10 h, 1 mL min^−1", "method": "FIG. 64 depicts amine-glutaraldehyde cross-linker immobilization. Glutaraldehyde solution (90 μL in 3.00 mL PBS) was added to a freshly coated sample tube. The sample tube was then capped, and inserted into a VFD. The sample tube was rotated at 8 krpm for 30 min to create the APTES-glutaraldehyde cross linker. After rotation, the sample tube was then rinsed with PBS (6×5 mL) and inverted to remove the majority of the buffer solution. The enzyme immobilization step was then carried out as described above. Following this, the sample tube was removed from the VFD and washed with PBS (5×5 mL, pH 8.0), and inverted to remove the majority of the buffer solution. The sample tube was then loaded back into the VFD before addition of NaBH3CN (18.8 mg) in sodium acetate buffer (50 mM, pH 5.0, 3.00 mL). The sample tube was then capped and rotated at 8 krpm for 30 min. […]\nThe p-nitrophenol phosphate substrate solution (0.01 M in 1.0 M diethanolamine) was prepared as follows: […] of diethanolamine was added to 1.0 L of H2O, then the pH of the solution was adjusted to pH 9.8 using 5 M HCl. […] The aliquot was then analyzed via absorption spectroscopy as described above. […]"}, "[2]": {"assay": "Alkaline phosphatase VFD vs batch enhancement, incl. steric crowding (Example 1)", "details": "VFD 10 minutes", "method": "In a typical experiment, fast thermosensitive alkaline phosphatase (1 μL, 1 unit, Thermo-Fisher) was added to 10 mL of diethanolamine buffer (1.0 M diethanolamine buffer with 0.50 mM magnesium chloride at pH 9.8 at 25° C.) in creating an enzyme stock solution. This solution was stored on ice and not stored for more than two hours. p-nitrophenyl phosphate liquid substrate solution (500 μL, Sigma-Aldrich) was added to a 20 mm external diameter VFD tube. To this was added alkaline phosphatase enzyme solution (800 μL) and the tube was inserted into the VFD and immediately spun to the required rotational speed. The VFD tube was rotated about its axis for 10 minutes at a 45-degree tilt angle relative to the horizontal position. At the end of this time 4 M NaOH (150 μL) was added in quenching the reaction. The sample was then added to a 96-well reader plate and the absorbance read at 401 nm (being the λmax for this system with 150 μL NaOH quench). […] From a comparison of the absorption values of the VFD vs. batch an enhancement factor can be determined (FIGS. 3A-3N).\nFor the steric crowding studies the following method was performed. […] The sample was then added to a 96-well reader plate and the absorbance read at 401 nm (being the λmax for this system with 150 μL NaOH quench). […] From a comparison of the absorption values of the VFD vs. batch an enhancement factor can be determined (FIGS. 3A-3N)."}, "[3]": {"assay": "Alkaline phosphatase VFD acceleration, crowding and centrifuge control (Example 4)", "method": "The enzyme-substrate solution (alkaline phosphatase and p-nitrophenol phosphate) was subjected to centrifugation in a bench top centrifuge at the indicated rotational speeds for 10 min. A direct comparison was then made between a VFD sample and a centrifuged sample (FIG. 12).\nFAsTAP™ thermosensitive alkaline phosphatase (1.0 μL, 0.11 mM) was added to 10 mL of the diethanolamine buffer to generate an enzyme stock solution (11.1 nM). This solution was made fresh every two hours and stored on ice. Each sample was prepared by combining 0.800 mL of the enzyme stock solution and 0.500 mL of alkaline phosphatase liquid substrate system (pNPP, Sigma-Aldrich, 0.435 mM); this solution (1.3 mL) was added to either an Eppendorf or VFD sample tube. The reaction was incubated at 25° C. for 10 min unless otherwise indicated. […] The sample (100 μL) was then transferred to a 96-well micro plate reader, and the absorbance measured at 402 nm (λmax). […]\nTo explore the ability of VFD-mediated processing to overcome steric crowding reagents, two PEG polymers with average MW of 3350 and 8000 g/mol were added to the alkaline phosphatase-substrate solutions as follows. The appropriate quantities of PEG reagent for the indicated final concentrations were dissolved in diethanolamine buffer (total volume of 10.0 mL). […] The absorbance of the solution was then measured at 402 nm (FIG. 23)."}, "[4]": {"assay": "Michaelis-Menton initial rates experiments, batch vs VFD (Table 1)", "details": "Batch (non-VFD)", "method": "In determining if the observed acceleration is due to a kinetic or thermodynamic effect, the initial rates of each reaction were explored. All five enzymes were subjected typical kinetic experiments using the Michaelis-Menton model. The intrinsic values of the enzymes in a batch type and VFD system could be ascertained (Table 1).\nTo a 17.7 mm internal diameter VFD tube was added the substrate and enzyme in buffer at the appropriate concentration. The VFD tube was rotated about its axis at a specific rotational speed at an inclination angle of 45-degrees. After a set amount of time had elapsed, the rotation was immediately halted and the quenching reagent added. The exact same reaction was run alongside the VFD in mimicking a non-VFD process. From both the VFD processed and non-VFD processed sample an aliquot of 0.100 mL was removed and added to a 96 well plate and read at 405 nm to detect the production of p-nitrophenoxide. These measurements were carried out in triplicate and allow an accurate comparison to be drawn between VFD and non-VFD processing. For all alterations to this general protocol, assay and further experimental design, see supporting information."}}, "note": "Entries after “also recorded” stand apart in the source; their conditions may differ."}
{"substance": "alkaline phosphatase", "values": [{"measurement": "stability of immobilized enzyme in continuous flow", "setting": "[1]", "result": "stable levels of substrate conversion for 10 h; also recorded: good stability over 10 h of processing"}, {"measurement": "enhancement compared to a non-VFD sample, crowded solution", "setting": "[2]; 6 mg/mL PEG8000 dopant, 45-degree tilt", "result": "~12", "unit": "×"}, {"measurement": "enhancement in activity compared to a non-VFD sample", "setting": "[2]; 45-degree tilt angle", "result": "~6", "unit": "×"}, {"measurement": "enhancement of VFD-processed enzyme in high concentration of PEG 8000", "setting": "[3]; PEG 8000 (6.00 mg/ml, 0.75 M)", "result": "≈ 9 fold"}, {"measurement": "effect of centrifugation on enzymatic activity (control)", "setting": "[3]; centrifuged at 14 krpm (17530 g), no VFD", "result": "no increase in enzymatic activity"}, {"measurement": "Km", "setting": "[4]", "result": 484, "unit": "µM"}, {"measurement": "Vmax (Mol/sec) Batch", "setting": "[4]", "result": "2.271e-08", "unit": "mol/s"}, {"measurement": "kcat (sec^−1) Batch", "setting": "[4]", "result": 1, "unit": "s⁻¹"}]}
